Entries after “also recorded” stand apart in the source; their conditions may differ. Counter-ions that a name gives are not always drawn.
What was measured:
rats [1] = assay: Behavioral safety pharmacology study in rats; type: in vivo; conditions: rat
Protocol: In a behavioral study in rats, single SC administration of 10, 25 or 50 mg/kg RE104 HCl induced significant acute, and reversible neuro-pharmacological effects; however, all observations were attributed to exaggerated pharmacologic effects at the serotonin receptor of the test article (i.e., SS). The incidence and duration of observations were dose related.

[2] = target: human ether-a-go-go-related gene (hERG) (Homo sapiens, UniProt Q12809); assay: hERG tail current assay; type: cell-based; conditions: 30 μM as zwitterion (highest concentration tested)
male rats = assay: Respiratory function study in male rats; type: in vivo, rat; conditions: single SC 10, 25, and 50 mg/kg
Protocol: In a respiratory function study in male rats, at single SC doses of 10, 25, and 50 mg/kg, RE104 HCl produced increases in respiration rate (8-28%) and decreases in tidal volume (28-30%) and minute volume (24-31%). All these changes were transient and returned to pre-dose values by the 6-hour post-dose reading. Based upon the small magnitude and the transient nature of these changes, the changes were not considered adverse.

healthy females [3] = assay: Phase 1 FIH single ascending dose study: safety and tolerability (AEs); type: in vivo, human
Protocol: (§1) The study was a double-blind, randomized, placebo-controlled Phase 1 single ascending dose study in up to 6 cohorts in healthy females. Eligibility was assessed during a screening period of up to 28 days prior to enrollment. For the treatment period, subjects were admitted to the clinical research unit (CRU) one day prior to the dosing (Day −1). On Day 1, all subjects will received the assigned SC dose of RE104 HCl or placebo in a fed state (after domiciling overnight and consuming a planned evening meal on Day −1 and morning meal on Day 1 while at the CRU). Subjects were allowed to select snacks from a planned menu from 4 hours following dosing. Subjects were discharged from the clinic on Day 2 (−24 hours post-dose) after all required study procedures were completed and if deemed medically fit. Subjects returned to the clinic on Day 10 (±2 days) for a follow up visit.
Six (6) cohorts were enrolled in the study. Six (6) single doses were tested in 6 cohorts (Cohort 1 to Cohort 6) of 8 healthy female subjects (6 active and 2 placebo), as indicated in FIG. 1 and Table 3.
The starting dose was 5.5 mg RE104 HCl. Sentinels were used in all cohorts. Within each cohort, 2 subjects were treated first: 1 subject received RE104 HCl and 1 subject received placebo.
The study was monitored by a safety review committee (SRC). […] Safety, tolerability, and available PK data were assessed by the SRC between each cohort before ascending to the next dose level (Table 3). After each cohort dosing was complete, the SRC met to discuss dose escalation. Escalation to the next higher dose level occurred only after evaluation of the safety and tolerability data up to and including at least 24 hours post-dose of all evaluable subjects in the previous dose cohort. Available PK results were requested for determination of dose escalation, as deemed necessary.
Dosing took place at a time point agreed to with the investigational pharmacy and acceptable to the investigator. RE104 HCl or placebo were administered as a SC injection in the upper arm. Subjects received RE104 HCl or placebo in a fed state. The time of administration of RE104 HCl or placebo was be recorded in the eCRF. The regimen used is outlined in Table 3.
Within each cohort, 2 sentinel subjects were treated first: 1 subject received RE104 HCl and 1 subject received placebo. […] All drug administration was be done under direct medical supervision. Study subjects were overseen during the potentially psychoactive study drug period by professionals trained to monitor psychedelic experiences.

[4] = tested on: conscious telemetered beagle dogs; assay: Cardiovascular study in conscious telemetered beagle dogs; type: in vivo; conditions: dog
rats [5] = assay: GLP 14-day extended single SC dose toxicity study in rats
Protocol: (§2) In a GLP 14-day extended single SC dose toxicity study in rats, doses of 0 (PBS), 10, 25 and 75 mg/kg were evaluated. Animals were necropsied on Study Day 2 and Day 14 (also referred to as Recovery Day 13) post-dosing.
(§3) A non-GLP dose range study was performed in the dog in order to determine an MTD. Single SC doses of 7.5, 15 and 20 mg/kg were evaluated.

[6] = as above; conditions: female, Sprague Dawley, rat, in vivo, subcutaneous
Protocol: as §2, §3

healthy females [7] = assay: Phase 1 FIH study: Mystical Experience Questionnaire (MEQ30); type: in vivo, human; conditions: 33 mg
Protocol: as §1
The Mystical Experience Questionnaire (MEQ30) is a validated questionnaire that assesses individual episodes of a mystical experience produced by classic hallucinogens (Barrett et al. 2015). The validated MEQ30 uses thirty questions across 4 areas of experience: (i) Mystical (including items concerning internal unity, external unity, noetic quality, and sacredness); (ii) Positive mood; (iii) Transcendence of time and space; and (iv) Ineffability. The subjects will be asked to rate each item of the MEQ30 on a 6-point scale. FIG. 3 sets out the revised MEQ30 that was used.

healthy females [8] = assay: Phase 1 FIH study: modified Drug Effect Questionnaire (DEQ-High); type: in vivo, human
Protocol: as §1
The Drug Effect Questionnaire (DEQ) Feel/High is widely used in studies of acute subjective response to a variety of substances, to assess two key aspects of subjective experience: (1) the strength of substance effects and (2) desirability of substance effects (Morean et al., 2013). The modified DEQ assesses the extent to which subjects (1) feel any substance effect(s) and (2) feel high. This version of the DEQ includes the following items: “Do you feel a drug effect right now?” (FEEL); “Are you high right now?” (HIGH). FIG. 2 sets out the modified DEQ that was used.
The modified DEQ was used as an 11-point numeric rating scale (0-10) administered by a qualified staff member. The subjects were asked to verbally respond to indicate how strongly they feel the drug effect and how high they feel on the scale of 0-10 after being administered the study drug (Kollltveit et al., 2020).

[9] = rat, oral Gymnopilus spectabilis (Chen et al.); cited from earlier work
[10] = in vivo; cited from earlier work
[11] = Metabolite profiling in monkey plasma after SC RE104; type: in vivo, cynomolgus monkey; conditions: pooled plasma 0 to 12 hours post dose, SC 0.5 mg/kg RE104
Excerpt: Blood samples were centrifuged to obtain plasma.

[12] = Prodrug cleavage in human plasma; type: in vitro ADME; conditions: human plasma (data not shown)
Protocol: Mean values from 3 replicate assays are reported. See the Supplemental Methods for additional details.
Triplicate aliquots (50 μL) of each spiked plasma solution were immediately added to 200 μL of ice-cold methanol/acetonitrile solution (50:50 v/v) containing the internal standards to generate time zero samples. Spiked plasma solutions were incubated at 37° C. in an orbital shaker set to 75 rpm, and 50-μL samples were taken in triplicate after 30 minutes and 1, 2, and 4 hours of incubation. Each sample was immediately added to 200 μL ofice-cold methanol/acetonitrile solution containing the internal standard(s) to terminate the reaction. Samples were mixed by vortex and then stored at −80° C. until analysis.
Calibration standards were prepared in plasma for each species and analyzed in batches by LC-MS/MS. Sample batches consisted of 3 replicates of a system suitability standard (containing the analyte and internal standard), the appropriate calibration standards in ascending order including a blank sample without internal standard, a zero sample (with internal standard), and at least 6 nonzero standards and the assay samples, followed by the 3 replicates of the system suitability sample.

male Wistar rats = assay: Forced swim test (FST) in rats; type: in vivo, rat
humans = conditions: humans; cited from earlier work

Sequence of human ether-a-go-go-related gene (hERG) (Q12809 whole entry): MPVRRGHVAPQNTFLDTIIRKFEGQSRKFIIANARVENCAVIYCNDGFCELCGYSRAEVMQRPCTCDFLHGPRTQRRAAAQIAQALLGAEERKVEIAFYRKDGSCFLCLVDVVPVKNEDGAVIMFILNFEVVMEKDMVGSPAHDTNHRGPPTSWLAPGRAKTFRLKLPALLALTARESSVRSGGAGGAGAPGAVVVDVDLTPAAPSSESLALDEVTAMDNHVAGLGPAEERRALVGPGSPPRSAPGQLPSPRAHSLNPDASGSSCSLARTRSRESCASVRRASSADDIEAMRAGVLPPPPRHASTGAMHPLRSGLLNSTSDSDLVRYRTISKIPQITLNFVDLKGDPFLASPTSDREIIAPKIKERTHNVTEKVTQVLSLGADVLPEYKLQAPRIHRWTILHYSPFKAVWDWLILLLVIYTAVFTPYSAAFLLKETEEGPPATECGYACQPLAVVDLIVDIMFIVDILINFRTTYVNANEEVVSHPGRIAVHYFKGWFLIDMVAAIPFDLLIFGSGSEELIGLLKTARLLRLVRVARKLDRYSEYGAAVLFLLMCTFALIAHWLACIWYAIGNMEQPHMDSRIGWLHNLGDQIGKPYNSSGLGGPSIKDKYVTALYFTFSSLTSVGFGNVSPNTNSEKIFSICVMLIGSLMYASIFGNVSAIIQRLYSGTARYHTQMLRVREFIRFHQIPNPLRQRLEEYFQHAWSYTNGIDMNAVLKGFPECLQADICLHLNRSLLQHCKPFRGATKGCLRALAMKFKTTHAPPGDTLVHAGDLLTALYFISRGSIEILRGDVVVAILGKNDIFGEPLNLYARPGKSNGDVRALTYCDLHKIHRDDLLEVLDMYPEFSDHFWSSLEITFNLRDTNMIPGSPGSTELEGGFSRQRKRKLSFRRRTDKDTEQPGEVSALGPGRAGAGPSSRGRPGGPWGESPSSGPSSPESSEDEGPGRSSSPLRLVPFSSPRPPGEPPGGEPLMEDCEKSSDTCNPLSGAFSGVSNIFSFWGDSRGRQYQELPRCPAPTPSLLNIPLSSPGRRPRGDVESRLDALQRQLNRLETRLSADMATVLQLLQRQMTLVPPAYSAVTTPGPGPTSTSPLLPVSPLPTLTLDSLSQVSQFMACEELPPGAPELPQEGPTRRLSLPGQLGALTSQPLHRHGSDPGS

Compound: CC(C)N(CCc1c[nH]c2cccc(OC(=O)CCCC(=O)O)c12)C(C)C [RE104 HCl, 4-Glutaroyl-3-(2-diisopropylaminoethyl)-1H-indole hydrochloride]
- time of neuro-pharmacological effects (rats [1]; single SC 10 mg/kg): effects were observed at 30 minutes (min) to 1 hour (h)
- time of neuro-pharmacological effects (rats [1]; single SC 25 mg/kg): effects were observed to 6 h
- time of neuro-pharmacological effects (rats [1]; single SC 50 mg/kg): effects were noted through 6 h post-dose but were resolved by 24 h
- decrease in hERG current amplitude [2]: 5.9 ± 1.6%
- decreases in minute volume (male rats): 24-31%
- decreases in tidal volume (male rats): 28-30%
- increases in respiration rate (male rats): 8-28%
- injection site adverse reactions (healthy females [3]; SC injection in the upper arm): No injection site adverse reactions were reported
- serious AEs (healthy females [3]; doses up to and including 44 mg): no serious AEs
- blood pressure, vital sign, clinical laboratory, electrocardiogram findings (healthy females [3]; doses up to and including 44 mg, hydrochloride): no evident blood pressure effects; also recorded: no clinically significant vital sign, clinical laboratory, or electrocardiogram findings
- effects on cardiac rhythm, ECG parameters or body temperature ([4]; SC 1, 3 or 8 mg/kg): No significant biologically relevant effects
- effect on heart rate and blood pressure ([4]; SC 3 and 8 mg/kg): Transient increases in heart rate and blood pressure
- effect on heart rate and blood pressure ([4]; single SC 1 mg/kg): small transient increase in heart rate but had no effect on blood pressure
- Fold Lower than Scaled NOAEL Dose (rats [5]; Cohort 1, 5.5 mg RE104 HCl): 19
- Fold Lower than Scaled NOAEL Dose (rats [5]; Cohort 2, 11 mg RE104 HCl): 9.7
- Fold Lower than Scaled NOAEL Dose (rats [5]; Cohort 3, 22 mg RE104 HCl): 4.9
- Fold Lower than Scaled NOAEL Dose (rats [5]; Cohort 4, 33 mg RE104 HCl): 3.2
- MRSD (rats [5]; from rat NOAEL, 10-fold safety margin): 9.7 mg
- NOAEL at 14 days [6]: 10 mg/kg
- MEQ total score and domain scores (healthy females [7]): ≥ 60%
- reduction of psychoactive experience relative to historical evidence with psilocybin (healthy females [8]; 33 mg): 50%
- time of peak activity (healthy females [8]; 33 mg SC): approx 1 h

Compound: CN(C)CCc1c[nH]c2cccc(O)c12 [psilocin]
- distribution half-life [9]: 1.95 h
- elimination half-life [9]: 2.47 h
- oral bioavailability in man [10]: approximately 53%

Compound: CC(C)N(CCc1c[nH]c2cccc(OC3OC(C(=O)O)C(O)C(O)C3O)c12)C(C)C (stereo not drawn) [glucuronidation of 4-OH-DiPT]
- share of the total peak area [11]: 24.5%

Compound: CN(C)CCc1c[nH]c2cccc(OC(=O)CCCC(=O)O)c12.Cl [RE109, psilocin-4-glutarate, reference compound]
- cleavage to psilocin [12]: rapid cleavage to psilocin
- climbing as share of escape behaviors (male Wistar rats; rat FST, day 28): 26%
- swimming as share of escape behaviors (male Wistar rats; rat FST, day 28): 74%
- mean swimming time relative to vehicle (male Wistar rats; rat FST, single 1 mg/kg dose): significantly increased
- mean immobility time vs vehicle (male Wistar rats; rat FST, single 1 mg/kg dose, day 14 and 28): significant decrease
- duration of distinctive serotonergic behaviors (male Wistar rats; rat, dosing day, 1 mg/kg): approximately 3 hours

Compound: CN(C)CCc1c[nH]c2cccc(OP(=O)(O)O)c12 [psilocybin]
- duration of psychedelic state / effects (humans): 6 to 8 h

— patent publication US20250319067A1, “Improved Pharmacokinetics of Tryptamine Prodrugs” (Reunion Neuroscience, Inc., priority 2023, published 2025)
